Patent US20160375155A1, “Collagen Imaging Compositions” (Collagen Medical, LLC, priority 2015, published 2016)
Like-named read-outs stand apart in the source and are kept apart here.

Tests used:
[1] = Pharmacokinetics (rat), plasma gadolinium by ICP-MS; type: in vivo, Sprague Dawley rats; conditions: 1.3 umol/kg iv bolus in 80 mM sucrose, pH 7, 2-90 minutes
Method: Compound ID No. 1 was formulated at pH 7 in 80 mM sucrose and administered to Sprague Dawley rats (n=2) at dose of 1.3 umol/kg using a bolus IV injection. Plasma was sampled at 2, 5, 15, 30, and 90 minutes post-injection and analyzed for gadolinium content using ICP-MS (FIG. 15).

[2] = system: hypoperfused vs normally perfused myocardium; type: in vivo, canine
Method: To mimic severe ischemia, a canine model was used in which an inflatable variable vascular occluder was placed around the left anterior descending coronary artery (LAD) to allow occlusion and reperfusion. Imaging was performed on a 3 T clinical scanner 4 days after implantation of the occluder. The conventional saturation recovery pulse sequence for stress perfusion imaging was compared with a segmented inversion method. The purpose of the segmented inversion method was to leverage the steady-state properties of Compound ID No. 1. This segmented inversion recovery pulse sequence provides greater T1 weighting, higher spatial resolution, and greater myocardial tissue contrast. Additionally, since imaging is delayed, the entire heart can be imaged. After baseline MRI scanning, the balloon was inflated. Compound ID No. 1 was administered as an i.v. bolus at a dose of 7.5 μmol/kg one minute after coronary artery occlusion. The occlusion was maintained for an additional 4 minutes, after which blood flow was restored. Imaging was performed prior to occlusion release and at multiple time points following reperfusion (up to 120 minutes after reperfusion, see FIG. 20)
To assess relative perfusion, labeled microspheres were administered at 3 timepoints in the study. La-labeled microspheres were given before coronary artery occlusion, Au-labeled microspheres were given during coronary artery occlusion, and Lu-labeled microspheres were given after reperfusion. In addition, prior to euthanasia, the variable occluder was re-inflated and fluorescent microspheres were administered in combination with KCl to arrest the heart and visually delineate the area of hypo-perfusion. The animal was sacrificed at ca. 120 minutes post Compound ID No. 1 and the heart removed and sectioned according to American Heart Association guidelines (M D Cerqueira et al, Circulation, 2002, 105:539-42). At autopsy under ultraviolet light, the hypo-perfused myocardium was differentiated from normal myocardium due to the lack of fluorescence in the hypo-perfused tissue. Based on the fluorescence, a sample of the ischemic territory and a sample of the remote myocardium were taken for ex vivo analysis. These tissue samples were weighed, digested in nitric acid, and analyzed for the elements La, Au, Lu (the three microsphere injections) and gadolinium (Compound ID No. 1) using ICP-MS. Concentrations in the ischemic tissue were compared to that of the remote myocardium to assess regional flow and probe uptake.
Data were quantitatively evaluated at pre-contrast, at 6 minutes post-contrast, and 15 minutes post-contrast using signal-to-noise ratios (SNR) for normally perfused myocardium, SNR for hypo-perfused myocardium, and contrast to noise ratio (CNR) for normal-to-hypoperfused myocardium, Tables 8-10 and FIG. 23. […]

[3] = system: acute and chronic myocardial infarct (fibrosis); type: in vivo, canine; conditions: for CNR between infarct and blood: Compound ID No. 1 0.0075 mmol/kg, extracellular gadolinium 0.2 mmol/kg
From the text: An experimental protocol was developed to test the ability of Compound ID No. 1 to differentiate acute from chronic myocardial infarction in an in-vivo large animal (canine) model. In this model, early following acute myocardial infarction, pathologic fibrosis has not fully developed within the infarct zone (fibrosis-poor), whereas in chronic MI (˜8 weeks following MI), dense fibrosis fully replaced necrotic myocardium (fibrosis-rich).
In the myocardial fibrosis canine model, a vascular occluder was placed surgically around the left anterior descending coronary artery (LAD) to allow occlusion and reperfusion. Two animals were studied following acute MI and two additional animals were studied both following acute MI, and chronically at 8 weeks. The LAD vessel was completely occluded for 70-90 minutes and then released to allow reperfusion. The chest was sutured closed, and the animal was allowed to recover. Imaging was performed on a 3 T clinical scanner in an acute (<1 week, minimal fibrosis expected in acute necrosis) and chronic (8 weeks, healing complete, necrotic myocardium replaced by dense collagenous scar) time point after infarction. For each time point, the animals undergo 2 scans separated by 48 hours with conventional gadolinium contrast (0.2 mmol/kg GdDTPA) and Compound ID No. 1 (0.0075 mmol/kg).
Imaging was performed on a 3 T clinical scanner (Siemens Verio). Breath holding was achieved by temporarily turning off the animal ventilator, and all images were ECG gated. Standard short and long axis cine imaging was performed throughout the left ventricle to identify left ventricular function and regional wall motion abnormalities. Delayed enhancement imaging (segmented 2D inversion recovery gradient echo) was performed prior to and serially following Compound ID No. 1 administration. Two strategies were employed: (1) a fixed inversion time was chosen to null pre-contrast myocardium (TI˜650 ms), and (2) a variable inversion time set to null post-contrast myocardium as is performed in traditional delayed enhancement imaging.
After imaging, animals were euthanized and post mortem analysis of myocardium was performed. Tissue was assessed grossly by histopathologic staining with triphenyltetrazolium chloride for myocardial infarction, and microscopically with Masson's trichrome staining for fibrosis. Additionally quantitative tissue analysis for hydroxyproline was used to measure total collagen content in tissue and compared to tissue gadolinium concentration by inductively coupled plasma-mass spectrometry. MR data was analyzed quantitatively for conspicuity of infarction and image quality as well as contrast to noise ratio (CNR) for infarct-normal myocardium and infarct-blood.

[4] = system: fibrotic liver tissue; test: Uptake into fibrotic liver tissue, bile duct ligated (BDL) rats; type: in vivo, Sprague-Dawley rats; conditions: BDL rats vs sham, ~7.5 μmol/kg, 90 min
Method: Bile duct ligated (BDL) rats are selected to assess the uptake of the complexes in fibrotic liver tissue as compared to sham operated animals. In this model, the common bile duct is surgically tied off and the resultant cholestosis results in fibrosis around the bile ducts. Laparotomy is performed in Sprague-Dawley rats with double ligation of the common bile duct with a section between the two ligatures (2-3% isoflurane anesthesia). […] Fibrosis is evident 15 days after ligation and increases with time up to 30 days after ligation, providing defined endpoints for imaging of moderate and severe fibrosis. Studies are conducted by injecting Compound ID. No. 1 at a dose ˜7.5 μmol/kg. After 90 min, the animals are sacrificed and the 4 liver lobes and abdominal muscle are removed and the gadolinium concentration quantified by ICP-MS and collagen content quantified using hydroxyproline concentration.

## CC(C)C[C@H](NC(=O)[C@@H]1CSSC[C@H](NC(=O)[C@H](Cc2c[nH]cn2)NC(=O)[C@H](Cc2c[nH]c3ccccc23)NC(=O)[C@H](CCCCNC(=O)CC[C@H](C(=O)O)N2CCN(CC(=O)O)CCN(CC(=O)O)CCN(CC(=O)O)CC2)NC(=O)CNC(=O)CC[C@H](C(=O)O)N2CCN(CC(=O)O)CCN(CC(=O)O)CCN(CC(=O)O)CC2)C(=O)N[C@@H]([C@@H](C)O)C(=O)N[C@@H]([C@@H](C)O)C(=O)N[C@@H](CCCCNC(=O)CC[C@H](C(=O)O)N2CCN(CC(=O)O)CCN(CC(=O)O)CCN(CC(=O)O)CC2)C(=O)N[C@@H](Cc2ccccc2)C(=O)N2CCC[C@H]2C(=O)N[C@@H](Cc2c[nH]cn2)C(=O)N[C@@H](Cc2c[nH]cn2)C(=O)N[C@@H](Cc2ccc(O)cc2)C(=O)N1)C(=O)N[C@@H](Cc1ccc(O)cc1)C(=O)N[C@@H](Cc1ccc(-c2ccccc2)cc1)C(N)=O [Compound ID No. 1]
[1]
  pharmacokinetic profile (plasma gadolinium): rapid initial blood clearance
[2]; 7.5 μmol/kg vs 12.3 μmol/kg EP-3600 (pig, literature)
  ΔCNR relative to EP-3600 study: 3 to 4 fold
[2]; MRI after 7.5 μmol/kg
  visualization of myocardial perfusion defect: readily visualized
[2]; post injection
  change in SNR of hypoperfused myocardium vs pre-contrast: not significantly higher compared to the pre-contrast image
[2]; post injection, persists at 15 min, P<0.01
  change in SNR of normally perfused myocardium vs pre-contrast: strong and significant increase in SNR
[3]; acute MI
  CNR between infarct and blood: 19±7.4
[3]; acute myocardial infarction, FIG. 24a
  T1 of infarct vs normal myocardium: longer than normal (N1) myocardium
[3]; acute myocardial infarction, FIG. 25a
  MR image enhancement of infarct over time: lack of contrast early, equilibration with normal myocardium at 30 minutes, and enhancement >1 hr
[3]; canine heart tissue, FIG. 26
  relationship of compound concentration (gadolinium) vs. collagen concentration (hydroxyproline): linear relationship
[3]; chronic MI (8 weeks)
  CNR between infarct and blood: 11±2
[3]; chronic infarct, compared with Gd delayed enhancement
  extent of the enhanced area: matched that of Gd delayed enhancement
[3]; chronic myocardial infarction, FIG. 24b
  T1 of infarct vs normal myocardium: lower T1 than normal myocardium throughout the entire experiment
[3]; chronic myocardial infarction, FIG. 24b, listed as Compound ID. No. 1
  T1 of infarct vs normal myocardium: early and persistent lowering of T1 values
[4]
  uptake into fibrotic liver tissue: consistent with uptake of Compound ID No. 1 into fibrotic-rich liver tissue
